*1 amine or outer side, *2 acyl side, *3 side chain or, on linkers, in order; H or OH if unused. Where a SMILES comes first, the peptide text is derived from it. Side-chain parts run from the residue outwards. [ ]: non-standard residue; d: D form. The star is where a group is joined. C20 diacid = O=C(O)CCCCCCCCCCCCCCCCCCC(=O)*; γGlu = O=C(O)[C@H](CCC(=O)[*:2])N[*:1]; εLys = N[C@@H](CCCCN[*:1])C(=O)[*:2]; NMeI = CC[C@H](C)[C@H](NC)C(=O)O; pGlu = O=C1CC[C@@H](C(=O)O)N1; αMeL = CC(C)C[C@](C)(N)C(=O)O; AEEA = NCCOCCOCC(=O)O; Aib = CC(C)(N)C(=O)O
Key:
[1] = biological target: T1, CRHR1 receptor (Y79 cells) (Homo sapiens, UniProt P34998); test: Human Y79 cAMP assay (native cell line expressing endogenous CRHR1); type: cell-based; details: human Y79 cells (CRHR1, no detectable CRHR2); mean ± SE
T1 construct: host or cells: Y79 human retinoblastoma cells
T1 sequence (P34998 24-415): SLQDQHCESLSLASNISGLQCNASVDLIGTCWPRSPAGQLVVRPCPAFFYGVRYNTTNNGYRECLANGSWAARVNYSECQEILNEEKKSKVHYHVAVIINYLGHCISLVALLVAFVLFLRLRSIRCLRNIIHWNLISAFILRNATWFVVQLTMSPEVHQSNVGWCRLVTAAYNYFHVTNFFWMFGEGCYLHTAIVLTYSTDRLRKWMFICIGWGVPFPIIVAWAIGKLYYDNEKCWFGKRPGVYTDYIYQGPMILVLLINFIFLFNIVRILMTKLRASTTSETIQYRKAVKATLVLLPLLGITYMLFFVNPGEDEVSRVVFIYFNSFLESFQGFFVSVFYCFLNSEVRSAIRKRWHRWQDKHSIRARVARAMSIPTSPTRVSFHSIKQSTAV
Description: Y79 cells, a human retinoblastoma cell line, express a high level of human CRHR1 with no detectable CRHR2. A7r5 cells, a rat aortic smooth muscle cell line, only express CRHR2 receptor with no detectable CRHR1. The rat CRHR2 gene shares 93% homology of nucleotides sequences with human CRHR2 and responds to human UCN2. Therefore, these two native cell lines were used for additional characterization of polypeptide selectivity.
Y79 cells were grown in a suspension culture as recommended by ATCC in the media containing RPMI (Gibco Cat #11875093) and 20% FBS (Gibco dialyzed Cat #26400044). Y79 cells were incubated at 37° C. with 5% CO2. A subcultivation was performed by removing the supernatant after centrifugation and suspending the cell pellet in fresh medium (A subcultivation ratio was 1:5). […]
The amount of intracellular cAMP was quantitated using HTRF technology (Homogeneous Time Resolved Fluorescence; Cisbio) as per vendor instructions. […] The HTRF signal was immediately detected using an Envision plate reader (Perkin-Elmer) to calculate the ratio of fluorescence at 665 to 620 nm. […]
Raw fluorescence data for concentration curves of the peptides in Table 2 and Table 3 were converted to cAMP amount (pmol/well) using a cAMP standard curve generated for each experiment.

CD4+ T cells = test: T cell proliferation assay; type: cell-based, human; details: for T Cell Proliferation Assay: protein 7-10 donors with diverse MHC: responding donors / donors tested
Description: This assay assessed the ability of tested antibodies or tested MAPPS peptides to activate CD4+ T cells by inducing cellular proliferation. CD8+ T cell depleted PBMC's were prepared and labeled with CFSE. Each sample was tested with media control, keyhole limpet haemocyanin (KLH; positive clinical benchmark control), tested antibodies, or tested MAPPS peptides. Cultures were incubated for 7 days. On day 7, samples were analyzed by flow cytometry.

[2] = Pharmacokinetics in CD-1 mice, single 100 nmol/kg subcutaneous dose; type: in vivo; details: mouse, plasma, sc, male CD-1 mice, mean
Description: Plasma concentrations of compounds were determined by LC/MS methods. For each assay, the compound and an internal standard (IS), were extracted from 100% mouse, rat, pig, or monkey plasma (70 μL) using Isopropanol-Methanol. Two distinct layers were formed upon centrifugation with the compound and the IS located in the supernatant layer. An aliquot of the supernatant (150 μL) was transferred to a Waters Sirocco Protein Precipitation Plate. The supernatant was eluted using a positive pressure manifold. The supernatant was mixed with 100-2 Water-Formic acid (400 μL) in a pretreated Sep-Pak tC18 SPE plate and eluted to waste. The peptide and IS were eluted with Acetonitrile-Formic acid (100 μL) in 2 steps (50 μL each step). The elution (40 μL) from SPE plate was mixed with diluent solution (1.875 μL 5× invitrosol and 3.125 μL 1% formic acid in water, 80 μL). A final sample (10 μl) was loaded onto a Xselect CSH C18 IS column (3.5 μm 2.1×20 mm). The column effluent was directed into a Thermo Fisher Scientific Orbitrap (Exploris 240) mass spectrometer for detection and quantitation.
Male CD-1 mice were administered a single subcutaneous dose (100 nmol/kg) of compound in 40 mM Tris-HCl 5% D-mannitol (pH 8) at a volume of 5 mL/kg. Blood was collected at 6, 24, 48, 96, 168, 240, 288, and 336 hours postdose for pharmacokinetic characterization.

[3] = system: pre-existing antibodies (ADA) in treatment-naive normal human serum; test: Pre-existing reactivity (ACE assay format); type: binding; details: for Pre-existing Reactivity 90th percentile T2 inhibition >50 donors: ACE assay format
Description: This assay assessed the presence of pre-existing antibodies (ADA) against the tested molecules in treatment-naive normal human serum (NHS). Diluted NHS was incubated overnight on a Pierce Streptavidin plate coated with biotinylated tested molecules. On the following day, the captured binding proteins were acid eluted, hard-coated to a Mesoscale (MSD) plate, and detected with a combination of biotin-labeled molecule and ruthenium-labeled streptavidin. If anti-drug antibodies were present, they would bind the labeled drug and the resulting signal was referred to as Tier 1 signal (expressed as electrochemiluminescence). […] The presence of pre-existing anti-drug antibodies was expressed as magnitude of the 90th percentile of Tier 2 inhibition. The 90th percentile of Tier 2 inhibition is a statistical tool to assess the magnitude of specificity of Tier 1 reactivity. This 90th percentile was used to rank molecules in terms of ADA risk.

EC50 [1] [pM] | AUC0-inf [2] [µM·h] | CL/F [2] [mL/h/kg] | Cmax [2] [nM] | Tmax [2] [h] | half-life [2] [h] | Pre-existing Reactivity 90th percentile T2 inhibition >50 donors [3] [%] | Molecule | CD4+ T cell proliferation response in donors (CD4+ T cells; CD8+ T cell depleted PBMCs, 7 days, ten donors) | T Cell Proliferation Assay: protein 7-10 donors with diverse MHC (CD4+ T cells) | 90th percentile Tier 2 inhibition (pre-existing anti-drug antibodies) [3]
> 1e+07 | – | – | – | – | – | – | CC[C@H](C)[C@H](NC)C(=O)N[C@H](C(=O)N[C@H](C(=O)N[C@@H](CO)C(=O)N[C@@H](CC(C)C)C(=O)N[C@@H](CC(=O)O)C(=O)N[C@H](C(=O)N1CCC[C@H]1C(=O)N[C@H](C(=O)NCC(=O)N[C@@](C)(CC(C)C)C(=O)N[C@@H](CC(C)C)C(=O)N[C@@H](CCC(N)=O)C(=O)N[C@@H](CCCCN)C(=O)N[C@@H](CC(C)C)C(=O)N[C@H](C(=O)N[C@@H](CCC(=O)O)C(=O)N[C@@H](CCC(N)=O)C(=O)N[C@@H](CCC(=O)O)C(=O)N[C@@H](CCCCN)C(=O)N[C@@H](CCC(N)=O)C(=O)N[C@@H](CCC(=O)O)C(=O)N[C@@H](CCCCN)C(=O)N[C@@H](CCC(=O)O)C(=O)N[C@@H](CCCCN)C(=O)N[C@@H](CCC(N)=O)C(=O)N[C@@H](CCC(N)=O)C(=O)N[C@@H](C)C(=O)N[C@@H](CCCCNC(=O)COCCOCCNC(=O)COCCOCCNC(=O)CC[C@H](NC(=O)CCCCCCCCCCCCCCCCCCC(=O)O)C(=O)O)C(=O)N[C@@H](CCC(=O)O)C(=O)N[C@@H](CC(N)=O)C(=O)N[C@H](C(=O)N[C@@H](CCC(=O)O)C(=O)N[C@H](C(=O)N[C@@H](CC(C)C)C(=O)N[C@@H](C)C(=O)N[C@@H](CCC(N)=O)C(=O)N[C@H](C(N)=O)C(C)C)[C@@H](C)CC)[C@@H](C)O)[C@@H](C)CC)[C@@H](C)CC)C(C)C)[C@@H](C)O)C(C)C [SEQ ID NO: 49, (NMeI) VTSLDVPIG αMeL LQKLIEQEKQEKEKQQAK((2-[2-(2-Amino-ethoxy)-ethoxy]-acetyl)2-γE-CO-(CH2)18-CO2H)ENTEILAQV-NH2] (H-[NMeI]VTSLDVPIG[αMeL]LQKLIEQEKQEKEKQQAK([AEEA-AEEA-γGlu-C20 diacid])ENTEILAQV-NH2) | – | – | –
– | – | – | – | – | – | – | CC[C@H](C)[C@H](NC)C(=O)N[C@H](C(=O)N[C@@H](CC(C)C)C(=O)N[C@@H](CO)C(=O)N[C@@H](CC(C)C)C(=O)N[C@@H](CC(=O)O)C(=O)N[C@H](C(=O)N1CCC[C@H]1C(=O)N[C@H](C(=O)NCC(=O)N[C@@H](CC(C)C)C(=O)N[C@@H](CC(C)C)C(=O)N[C@@H](CCC(N)=O)C(=O)N[C@H](C(=O)N[C@@H](CC(C)C)C(=O)N[C@@H](CC(C)C)C(=O)N[C@@H](CCC(=O)O)C(=O)N[C@@H](CCC(N)=O)C(=O)N[C@@H](CCC(=O)O)C(=O)N[C@@H](CCCCN)C(=O)N[C@@H](CCC(N)=O)C(=O)N[C@@H](CCC(=O)O)C(=O)N[C@@H](CCCCN)C(=O)N[C@@H](CCC(=O)O)C(=O)N[C@@H](CCCCN)C(=O)N[C@@H](CCC(N)=O)C(=O)N[C@@H](CCC(N)=O)C(=O)N[C@@H](C)C(=O)N[C@@H](CCCCNC(=O)COCCOCCNC(=O)COCCOCCNC(=O)CC[C@H](NC(=O)CC[C@H](NC(=O)CCCCCCCCCCCCCCCCCCC(=O)O)C(=O)O)C(=O)O)C(=O)N[C@H](C(=O)N[C@@H](CC(N)=O)C(=O)N[C@@H](C)C(=O)N[C@@H](CCC(N)=O)C(=O)N[C@H](C(=O)N[C@@H](CC(C)C)C(=O)N[C@@H](C)C(=O)N[C@@H](CCC(N)=O)C(=O)N[C@H](C(N)=O)C(C)C)[C@@H](C)CC)[C@@H](C)O)[C@@H](C)CC)[C@@H](C)CC)C(C)C)C(C)C [SEQ ID NO: 54] (H-[NMeI]VLSLDVPIGLLQILLEQEKQEKEKQQAK([AEEA-AEEA-γGlu-γGlu-C20 diacid])TNAQILAQV-NH2) | elicited a response in four out of ten donors | 4/10 | –
– | 25.7 | 3.94 | 327 | 24 | 22.8 | 37.9 | Ac-GSPSIVTS[αMeL]DVPT[Aib][αMeL]LQKILEQERAEKARQQAK([γGlu-AEEA-εLys-C20 diacid])EAAEILAQV-NH2 [SEQ ID NO: 1, Ac-GSPSIVTS αMeL DVPT Aib αMeL LQKILEQERAEKARQQAK(γE-(2-[2-(2-Amino-ethoxy)-ethoxy]-acetyl)-ϵK-CO-(CH2)18-CO2H)EAAEILAQV-NH2] | – | 0/9 | higher 90th percentile Tier 2 inhibition than polypeptides comprising SEQ ID NOs: 22 and 25
– | 15 | 6.76 | 270 | 24 | 25.1 | 14.3 | [pGlu]GSPSGIVTS[αMeL]DVPT[Aib][αMeL]LQKILEQERAEKARQQAK([γGlu-AEEA-εLys-C20 diacid])EAAEILAQV-NH2 [SEQ ID NO: 22, Pyr-GSPSGIVTS αMeL DVPT Aib αMeL LQKILEQERAEKARQQAK(γE-(2-[2-(2-Amino-ethoxy)-ethoxy]-acetyl)-ϵK-CO-(CH2)18-CO2H)EAAEILAQV-NH2] | – | 0/9 | –
– | 25 | 4.01 | 366 | 24 | 32.5 | 4.5 | {C20 diacid-εLys-AEEA-γGlu}-GSPSIVTS[αMeL]DVPT[Aib][αMeL]LQKILEQERAEKARQQATEAAEILAQV-NH2 [SEQ ID NO: 25] | – | 0/9 | –
